Assay results as given in ChEMBL document CHEMBL4840344, “Discovery of 1,8-naphthalidine derivatives as potent anti-hepatic fibrosis agents via repressing PI3K/AKT/Smad and JAK2/STAT3 pathways” (Bioorg Med Chem, 2021).
Calls of active or inactive are those of the source. The calls are words filed in the database; no cut-off is given here.

Experiments:
[1] = Anti-fibrogenic activity in human LX2 cells assessed as inhibition of TGFbeta1-induced CTGF mRNA expression at 3 uM incubated for 24 hrs by RT-PCR analysis; type: functional; details: LX-2
[2] = Anti-fibrogenic activity in human LX2 cells assessed as inhibition of TGFbeta1-induced COL1A1 mRNA expression at 10 uM incubated for 24 hrs by RT-PCR analysis; type: functional; details: LX-2
LX-2 [3] = test: Anti-fibrogenic activity in human LX2 cells assessed as inhibition of TGFbeta1-induced CTGF protein level at 3 to 10 uM incubated for 24 hrs by Western blot analysis; type: functional, cell-based; details: dose 3-10 µM
[4] = Anti-fibrogenic activity in human LX2 cells assessed as inhibition of TGFbeta1-induced MMP2 mRNA expression at 10 uM incubated for 24 hrs by RT-PCR analysis; type: functional; details: LX-2
LX-2 [5] = test: Anti-fibrogenic activity in human LX2 cells assessed as inhibition of TGFbeta1-induced TGFbeta1 protein level at 3 to 10 uM incubated for 24 hrs by Western blot analysis; type: functional, cell-based; details: dose 3-10 µM
LX-2 [6] = test: Down regulation of JAK3 expression in TGF-beta1 induced human LX2 cells at 3 to 10 uM after 24 hrs by Western blot analysis; type: functional, cell-based; details: dose 3-10 µM
[7] = Anti-fibrogenic activity in human LX2 cells assessed as inhibition of TGFbeta1-induced MMP2 mRNA expression at 3 uM incubated for 24 hrs by RT-PCR analysis; type: functional; details: LX-2
LX-2 [8] = test: Anti-fibrogenic activity in human LX2 cells assessed as inhibition of TGFbeta1-induced COL1A1 protein level at 3 to 10 uM incubated for 24 hrs by Western blot analysis; type: functional, cell-based; details: dose 3-10 µM
[9] = molecular target: Mothers against decapentaplegic homolog 2/homolog 3 (Homo sapiens) (UniProt P84022+Q15796); test: Inhibition of TGF-beta1 induced SMAD2/3 phosphorylation in human LX2 cells at 3 to 10 uM incubated for 24 hrs by Western blot analysis; type: cell-based; details: dose 3-10 µM
LX-2 [10] = test: Down regulation of PI3K expression in TGF-beta1 induced human LX2 cells after 24 hrs by Western blot analysis; type: functional, cell-based
LX2 = test: Inhibition of PI3K/Akt pathway in human LX2 cells assessed as inhibition of TGF-beta1 induced AKT phosphorylation at 3 to 10 uM incubated for 24 hrs by Western blot analysis; type: cell-based; details: dose 3-10 µM
[11] = Anti-fibrogenic activity in human LX2 cells assessed as inhibition of TGFbeta1-induced ACTA2 mRNA expression at 3 uM incubated for 24 hrs by RT-PCR analysis; type: functional; details: LX-2
LX-2 [12] = test: Down regulation of STAT3 expression in TGF-beta1 induced human LX2 cells at 3 to 10 uM after 24 hrs by Western blot analysis; type: functional, cell-based; details: dose 3-10 µM
[13] = Anti-fibrogenic activity in human LX2 cells assessed as inhibition of TGFbeta1-induced TGFbeta1 mRNA expression at 3 uM incubated for 24 hrs by RT-PCR analysis; type: functional; details: LX-2
COL1A1 promoter [14] = test: Inhibition of COL1A1 promotor activity in human LX2 cells at 20 uM incubated for 24 hrs by luciferase reporter gene assay; type: cell-based
[15] = Anti-fibrogenic activity in human LX2 cells assessed as inhibition of TGFbeta1-induced TGFbeta1 mRNA expression at 10 uM incubated for 24 hrs by RT-PCR analysis; type: functional; details: LX-2
LX-2 [16] = test: Anti-fibrogenic activity in human LX2 cells assessed as inhibition of TGFbeta1-induced MMP2 protein level at 3 to 10 uM incubated for 24 hrs by Western blot analysis; type: functional, cell-based; details: dose 3-10 µM
[17] = Anti-fibrogenic activity in human LX2 cells assessed as inhibition of TGFbeta1-induced ACTA2 mRNA expression at 10 uM incubated for 24 hrs by RT-PCR analysis; type: functional; details: LX-2
[18] = molecular target: Mothers against decapentaplegic homolog 3 (Homo sapiens) (UniProt P84022); test: Inhibition of TGF-beta1 induced SMAD3 phosphorylation in human LX2 cells by Western blot analysis; type: cell-based
[19] = Cytotoxicity against human LX2 cells assessed as cell death incubated for 24 hrs by MTT assay; type: cell-based, LX-2
[20] = molecular target: Tyrosine-protein kinase JAK2 (Homo sapiens) (UniProt O60674); test: Inhibition of JAK2 phosphorylation in TGF-beta1 induced human LX2 cells at 3 to 10 uM incubated for 24 hrs by Western blot analysis; type: cell-based; details: dose 3-10 µM
COL1A1 promoter [21] = test: Inhibition of COL1A1 promotor activity in human LX2 cells at 50 uM incubated for 24 hrs by luciferase reporter gene assay; type: cell-based
[22] = Anti-fibrogenic activity in human LX2 cells assessed as inhibition of TGFbeta1-induced CTGF mRNA expression at 10 uM incubated for 24 hrs by RT-PCR analysis; type: functional; details: LX-2
Rattus norvegicus [23] = test: Anti-fibrotic activity in Sprague-Dawley rat model of BDL-induced […] fibrosis assessed as reduction in hepatic collagen accumulation in portal areas at 200 mg/kg oral gavage for 14 days by Sirius red staining-based analysis; type: functional, organism-based; details: time 14.0 day
Rattus norvegicus [24] = test: Antifibrotic activity in Sprague-Dawley rat liver assessed as reduction in TGF-beta1-induced alpha-SMA protein expression at 200 mg/kg oral gavage for 14 days by Western blot analysis; type: functional, organism-based; details: time 14.0 day
Rattus norvegicus [25] = test: Antifibrotic activity in Sprague-Dawley rat liver assessed as reduction in TGF-beta1-induced TGF-beta1 protein expression at 200 mg/kg oral gavage for 14 days by Western blot analysis; type: functional, organism-based; details: time 14.0 day
Rattus norvegicus [26] = test: Anti-fibrotic activity in Sprague-Dawley rat model of BDL-induced […] fibrosis assessed as reduction in hepatic collagen accumulation in hepatic parenchyma at 200 mg/kg oral gavage for 14 days by Sirius red staining-based analysis; type: functional, organism-based; details: time 14.0 day
Rattus norvegicus [27] = test: Antifibrotic activity in Sprague-Dawley rat liver assessed as reduction in TGF-beta1-induced MMP2 protein expression at 200 mg/kg oral gavage for 14 days by Western blot analysis; type: functional, organism-based; details: time 14.0 day
Rattus norvegicus [28] = test: Antifibrotic activity in Sprague-Dawley rat liver assessed as reduction in TGF-beta1-induced COL1A1 protein expression at 200 mg/kg oral gavage for 14 days by Western blot analysis; type: functional, organism-based; details: time 14.0 day
Rattus norvegicus [29] = organism: Rattus norvegicus; test: Anti-fibrotic activity in Sprague-Dawley rat model of BDL-induced […] fibrosis assessed as reduction in hepatic injury by hematoxylin and eosin staining based microscopic analysis; type: functional, organism-based

Chain of Mothers against decapentaplegic homolog 2/homolog 3 (Homo sapiens) (P84022 whole entry, looked up): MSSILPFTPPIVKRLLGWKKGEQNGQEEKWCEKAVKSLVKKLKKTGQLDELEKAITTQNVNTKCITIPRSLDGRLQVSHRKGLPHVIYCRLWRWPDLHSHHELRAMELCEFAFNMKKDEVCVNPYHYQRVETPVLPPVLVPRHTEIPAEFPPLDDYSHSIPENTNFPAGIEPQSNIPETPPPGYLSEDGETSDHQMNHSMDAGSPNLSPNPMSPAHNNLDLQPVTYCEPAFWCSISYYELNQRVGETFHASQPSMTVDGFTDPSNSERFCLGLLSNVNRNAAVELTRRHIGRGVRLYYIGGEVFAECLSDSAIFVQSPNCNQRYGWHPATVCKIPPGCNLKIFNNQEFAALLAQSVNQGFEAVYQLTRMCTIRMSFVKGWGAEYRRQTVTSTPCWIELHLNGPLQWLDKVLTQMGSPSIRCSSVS
Chain of Mothers against decapentaplegic homolog 2/homolog 3 (Homo sapiens) (Q15796 whole entry, looked up): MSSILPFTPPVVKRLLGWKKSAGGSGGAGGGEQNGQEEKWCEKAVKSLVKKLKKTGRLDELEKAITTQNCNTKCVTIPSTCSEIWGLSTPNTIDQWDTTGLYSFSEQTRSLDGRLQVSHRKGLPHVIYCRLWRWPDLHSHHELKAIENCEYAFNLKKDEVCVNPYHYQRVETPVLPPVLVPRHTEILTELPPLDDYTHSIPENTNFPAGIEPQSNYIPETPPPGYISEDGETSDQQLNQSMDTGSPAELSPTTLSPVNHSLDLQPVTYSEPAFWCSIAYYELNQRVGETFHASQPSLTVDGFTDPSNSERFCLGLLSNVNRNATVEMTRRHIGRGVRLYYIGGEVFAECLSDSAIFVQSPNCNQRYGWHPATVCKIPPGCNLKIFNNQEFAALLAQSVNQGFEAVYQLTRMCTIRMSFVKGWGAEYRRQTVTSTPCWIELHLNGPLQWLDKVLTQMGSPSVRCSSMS
Chain of Tyrosine-protein kinase JAK2 (Homo sapiens) (O60674 whole entry): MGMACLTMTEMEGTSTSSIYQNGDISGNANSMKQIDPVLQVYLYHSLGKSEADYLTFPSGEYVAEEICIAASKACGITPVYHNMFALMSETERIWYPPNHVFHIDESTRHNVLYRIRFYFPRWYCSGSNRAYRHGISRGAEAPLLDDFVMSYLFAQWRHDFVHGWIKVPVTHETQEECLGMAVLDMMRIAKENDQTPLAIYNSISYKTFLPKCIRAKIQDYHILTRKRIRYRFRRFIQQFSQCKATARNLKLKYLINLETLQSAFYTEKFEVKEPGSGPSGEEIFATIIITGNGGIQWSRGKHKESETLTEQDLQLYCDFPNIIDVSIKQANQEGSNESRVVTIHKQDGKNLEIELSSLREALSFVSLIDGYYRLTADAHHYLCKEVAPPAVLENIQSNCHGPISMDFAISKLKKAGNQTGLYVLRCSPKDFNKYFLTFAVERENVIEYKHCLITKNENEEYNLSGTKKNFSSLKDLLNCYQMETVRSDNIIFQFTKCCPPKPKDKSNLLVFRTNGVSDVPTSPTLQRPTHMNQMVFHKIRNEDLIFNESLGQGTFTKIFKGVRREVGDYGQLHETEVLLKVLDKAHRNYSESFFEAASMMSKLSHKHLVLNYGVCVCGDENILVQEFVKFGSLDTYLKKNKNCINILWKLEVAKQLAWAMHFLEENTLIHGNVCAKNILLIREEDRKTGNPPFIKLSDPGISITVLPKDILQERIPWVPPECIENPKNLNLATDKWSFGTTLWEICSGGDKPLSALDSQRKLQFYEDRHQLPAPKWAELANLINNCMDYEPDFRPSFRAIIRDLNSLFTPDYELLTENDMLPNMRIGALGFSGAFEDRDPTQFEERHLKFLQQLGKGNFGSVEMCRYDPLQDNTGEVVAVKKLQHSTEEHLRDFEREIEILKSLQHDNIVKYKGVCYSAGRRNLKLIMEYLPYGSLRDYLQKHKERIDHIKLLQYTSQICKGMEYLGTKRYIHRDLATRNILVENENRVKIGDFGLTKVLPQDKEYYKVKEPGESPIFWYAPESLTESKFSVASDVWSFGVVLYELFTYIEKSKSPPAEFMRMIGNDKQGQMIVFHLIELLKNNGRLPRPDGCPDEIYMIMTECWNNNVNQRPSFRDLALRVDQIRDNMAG
Chain of Mothers against decapentaplegic homolog 3 (Homo sapiens) (P84022 2-425 limits assumed): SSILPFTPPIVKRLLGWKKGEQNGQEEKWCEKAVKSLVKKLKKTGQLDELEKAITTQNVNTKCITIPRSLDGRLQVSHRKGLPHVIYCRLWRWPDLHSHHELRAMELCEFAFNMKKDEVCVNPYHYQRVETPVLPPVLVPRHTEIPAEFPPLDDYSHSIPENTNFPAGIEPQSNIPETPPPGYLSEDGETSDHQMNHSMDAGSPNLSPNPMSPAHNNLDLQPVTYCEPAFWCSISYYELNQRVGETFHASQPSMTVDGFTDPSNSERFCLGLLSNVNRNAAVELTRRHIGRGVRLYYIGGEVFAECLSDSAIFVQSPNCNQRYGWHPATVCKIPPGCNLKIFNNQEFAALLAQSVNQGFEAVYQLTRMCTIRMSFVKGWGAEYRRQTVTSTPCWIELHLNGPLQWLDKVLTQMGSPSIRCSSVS

Compound | inhibition at 3 µM [1] [%] | inhibition at 10 µM [2] [%] | inhibition (LX-2 [3]) | inhibition at 10 µM [4] [%] | inhibition (LX-2 [5]) | Activity (LX-2 [6]) | inhibition at 3 µM [7] [%] | inhibition (LX-2 [8]) | inhibition [9] | Activity (LX-2 [10]) | inhibition (LX2) | inhibition at 3 µM [11] [%] | Activity (LX-2 [12]) | inhibition at 3 µM [13] [%] | inhibition (COL1A1 promoter [14]) [%] | inhibition at 10 µM [15] [%] | inhibition (LX-2 [16]) | inhibition at 10 µM [17] [%] | inhibition [18] | CC50 at 24 h [19] [µM] | further results
CC[N+]1(CCCCCCCOc2cc(C)cc(-n3cc(C(=O)Nc4cc(F)cc(F)c4)c(=O)c4ccc(N(C)C)nc43)c2)CCCCC1 | 30.8 | 70.8 | Active | 63.7 | Active | Dose-Dependent Effect | 40.8 | Active | Dose-Dependent Effect | Dose-Dependent Effect | Dose-Dependent Effect | 74.9 | Dose-Dependent Effect | 18.9 | 67.2 | 66 | Active | 80.8 | Dose-Dependent Effect | 97.6 | inhibition [20]: Active; inhibition (COL1A1 promoter [21]): 86.6%; inhibition at 10 µM [22]: 68.1%
CC[N+]1(CCCCCCCOc2cc(-n3cc(C(=O)Nc4cc(F)cc(F)c4)c(=O)c4ccc(N(C)C)nc43)ccc2C)CCCC1 | 32 | 79.7 | Active | 52.4 | Active | Dose-Dependent Effect | 36.8 | Active | Dose-Dependent Effect | Dose-Dependent Effect | Dose-Dependent Effect | 76.3 | Dose-Dependent Effect | 28.9 | 57 | 47 | Active | 83.6 | Dose-Dependent Effect | 95 | Activity (Rattus norvegicus [23]): Active; Activity (Rattus norvegicus [24]): Active; Activity (Rattus norvegicus [25]): Active; Activity (Rattus norvegicus [26]): Active; Activity (Rattus norvegicus [27]): Active; Activity (Rattus norvegicus [28]): Active; inhibition [20]: Active; inhibition (COL1A1 promoter [21]): 81.3%; Activity (Rattus norvegicus [29]): Active; inhibition at 10 µM [22]: 67.1%
